Results taken from ChEMBL document CHEMBL3621203, “Discovery and Structure Enabled Synthesis of 2,6-Diaminopyrimidin-4-one IRAK4 Inhibitors” (ACS Med Chem Lett, 2015).
Values after ≈ are worked out from the molar mass of the structure shown. Active and inactive are the calls of the source. The rule behind the calls is not given here.

What was measured:
[1] = molecular target: T1, Interleukin-1 receptor-associated kinase 4 (Homo sapiens, UniProt Q9NWZ3); assay: Inhibition of IRAK4 (unknown origin) using 5FAM-RKRQGSVRRRVHCCOOH as substrate after 30 mins by IMAP assay
T1 sequence (Q9NWZ3 whole entry): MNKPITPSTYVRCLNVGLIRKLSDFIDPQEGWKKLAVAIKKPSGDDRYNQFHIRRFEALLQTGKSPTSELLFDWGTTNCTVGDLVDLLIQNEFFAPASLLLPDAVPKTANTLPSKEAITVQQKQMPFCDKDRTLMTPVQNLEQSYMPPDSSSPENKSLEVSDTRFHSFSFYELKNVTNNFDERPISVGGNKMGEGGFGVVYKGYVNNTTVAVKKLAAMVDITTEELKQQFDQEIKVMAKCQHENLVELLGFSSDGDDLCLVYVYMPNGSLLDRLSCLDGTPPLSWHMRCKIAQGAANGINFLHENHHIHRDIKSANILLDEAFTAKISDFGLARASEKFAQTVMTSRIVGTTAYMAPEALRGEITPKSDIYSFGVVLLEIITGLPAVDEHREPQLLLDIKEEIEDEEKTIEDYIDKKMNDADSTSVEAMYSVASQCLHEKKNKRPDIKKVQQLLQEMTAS

[2] = molecular target: T1, Interleukin-1 receptor-associated kinase 4; assay: Inhibition of IRAK4-mediated NFkappaB activation in human THP1-XBlue cells assessed as LPS-induced secreted embryonic alkaline phosphatase activity treated 1 hr before LPS challenge measured after 5 hrs by spectrophotometer analysis; format: cell-based, THP-1
[3] = Oral bioavailability in Wistar Han rat at 10 mg/kg; format: ADME, organism-based; conditions: in vivo
[4] = Apparent permeability of the compound across pig LLC-PK1 cells; format: ADME, cell-based, Sus scrofa
[5] = Clearance in Wistar Han rat at 1 mg/kg, iv; format: ADME, organism-based; conditions: in vivo
[6] = Kinetic solubility of the compound at pH 7; format: physicochemical; conditions: buffer
[7] = molecular target: Receptor-type tyrosine-protein kinase FLT3 (Homo sapiens) (UniProt P36888); assay: Inhibition of FLT3 (unknown origin)
Receptor-type tyrosine-protein kinase FLT3 (Homo sapiens), sequence (P36888 whole entry): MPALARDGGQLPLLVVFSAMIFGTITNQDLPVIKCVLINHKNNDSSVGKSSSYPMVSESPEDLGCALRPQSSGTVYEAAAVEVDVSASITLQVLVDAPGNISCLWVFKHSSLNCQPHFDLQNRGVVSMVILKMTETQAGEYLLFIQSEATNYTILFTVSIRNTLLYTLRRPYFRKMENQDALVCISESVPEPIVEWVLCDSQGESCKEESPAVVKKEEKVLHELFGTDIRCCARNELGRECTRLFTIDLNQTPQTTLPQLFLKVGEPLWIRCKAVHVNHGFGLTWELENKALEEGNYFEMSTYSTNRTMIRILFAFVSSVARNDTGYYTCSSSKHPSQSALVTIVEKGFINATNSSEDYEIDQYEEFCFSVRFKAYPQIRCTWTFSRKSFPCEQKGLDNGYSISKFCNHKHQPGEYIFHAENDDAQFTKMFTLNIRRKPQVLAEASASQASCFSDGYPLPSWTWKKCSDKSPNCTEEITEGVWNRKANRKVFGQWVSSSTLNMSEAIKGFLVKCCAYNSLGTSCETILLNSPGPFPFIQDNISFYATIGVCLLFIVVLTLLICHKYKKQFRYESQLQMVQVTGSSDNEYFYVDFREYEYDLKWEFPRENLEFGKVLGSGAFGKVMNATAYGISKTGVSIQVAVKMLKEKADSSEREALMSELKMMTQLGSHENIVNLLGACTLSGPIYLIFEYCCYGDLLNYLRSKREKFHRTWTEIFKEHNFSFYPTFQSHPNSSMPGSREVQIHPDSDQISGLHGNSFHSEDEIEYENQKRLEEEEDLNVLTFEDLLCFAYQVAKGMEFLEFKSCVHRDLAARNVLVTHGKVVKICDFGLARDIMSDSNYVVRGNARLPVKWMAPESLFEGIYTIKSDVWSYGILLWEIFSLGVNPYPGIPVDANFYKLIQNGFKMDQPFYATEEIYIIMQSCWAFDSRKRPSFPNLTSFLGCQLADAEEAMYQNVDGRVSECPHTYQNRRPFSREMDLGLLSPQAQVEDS

Structure (SMILES)	IC50 [1] [nM]	IC50 [2] [nM]	bioavailability [3] [%]	Papp [4] [×10⁻⁶ cm/s]	clearance [5] [mL/min/kg]	solubility kinetic [6] [µM]	inhibition [7]
C[C@H]1CC[C@@H](Nc2nc(N3CCOCC3)[nH]c(=O)c2-c2nc3ccccc3s2)CN1	565						
O=c1[nH]c(N2CCOCC2)nc(N[C@H]2CNC[C@H](O)C2)c1-c1nc2ccccc2s1		333	2	9	43	8 (≈ 3.43 µg/mL)	
O=c1[nH]c(N2CCc3ccccc3C2)nc(N[C@@H]2C[C@H](CO)[C@@H](O)[C@H]2O)c1-c1nc2ccccc2s1	27	141	0	5	88	12 (≈ 6.07 µg/mL)	Active
CCc1nc(N[C@@H]2C[C@H](CO)[C@@H](O)[C@H]2O)c(-c2nc3ccccc3s2)c(=O)[nH]1	972						
O=c1[nH]c(N2CCOCC2)nc(N[C@@H]2C[C@H](CO)[C@@H](O)[C@H]2O)c1-c1nc2ccccc2s1			0	7	98	63 (≈ 29 µg/mL)	
O=c1[nH]c(N2CCC2)nc(N[C@@H]2C[C@H](CO)[C@@H](O)[C@H]2O)c1-c1nc2ccccc2s1		292	4	18	75	23 (≈ 9.88 µg/mL)	
O=c1[nH]c(N2CCCC2)nc(N[C@@H]2C[C@H](CO)[C@@H](O)[C@H]2O)c1-c1nc2ccccc2s1		78		12		26 (≈ 11.5 µg/mL)	
CSc1nc(N[C@@H]2C[C@H](CO)[C@@H](O)[C@H]2O)c(-c2nc3ccccc3s2)c(=O)[nH]1	352						
C[C@@H]1CC[C@@H](Nc2nc(N3CCOCC3)[nH]c(=O)c2-c2nc3ccccc3s2)CN1	93	580	42	15	51	13 (≈ 5.55 µg/mL)	
OC[C@H]1C[C@@H](Nc2nc(NC3CC3)ncc2-c2nc3ccccc3s2)[C@H](O)[C@@H]1O	470						
CN(C)c1nc(N[C@@H]2C[C@H](CO)[C@@H](O)[C@H]2O)c(-c2nc3ccccc3s2)c(=O)[nH]1	490						
O=c1[nH]c(N2CCOCC2)nc(N[C@@H]2CCCNC2)c1-c1nc2ccccc2s1			13	29	45	21 (≈ 8.66 µg/mL)	
